Assay results taken from ChEMBL document CHEMBL5360534, “Synthetic α-glucosidase inhibitors as promising anti-diabetic agents: Recent developments and future challenges” (Eur J Med Chem, 2023).

How the values were obtained:
[1] = Inhibition of alpha-glucosidase (unknown origin) using p-nitrophenyl-alpha-D-glucopyranoside as substrate preincubated for 15 mins followed by substrate addition and measured after 30 mins by multiplate spectrophotometric analysis; set-up: species or system Homo sapiens
[2] = biological target: Alpha-glucosidase (Saccharomyces cerevisiae S288c) (UniProt P53341+P38158+P07265); experiment: Potency index, ratio of acarbose IC50 to test compound IC50 for inhibition of Saccharomyces cerevisiae alpha-glucosidase; assay type: protein assay
Alpha-glucosidase [3] = biological target: T1, Alpha-glucosidase (Saccharomyces cerevisiae S288c, UniProt P53341+P38158+P07265); experiment: Inhibition of Saccharomyces cerevisiae alpha-glucosidase; assay type: protein assay
Alpha-glucosidase [4] = biological target: T1, Alpha-glucosidase; experiment: Competitive inhibition of Saccharomyces cerevisiae alpha-glucosidase assessed as inhibition constant; assay type: protein assay
Alpha-glucosidase [5] = biological target: T1, Alpha-glucosidase; experiment: Inhibition of Saccharomyces cerevisiae alpha-glucosidase using p-nitrophenyl-alpha-D-glucopyranoside as substrate preincubated for 10 mins followed by substrate addition and measured after 30 mins by absorbance based microplate reader analysis; assay type: protein assay
[6] = Inhibition of Saccharomyces cerevisiae alpha-glucosidase type I using p-nitrophenyl-alpha-D-glucopyranoside as substrate preincubated for 10 mins followed by substrate addition and measured after 20 mins by spectrophotometric analysis
Alpha-glucosidase [7] = biological target: T1, Alpha-glucosidase; experiment: Inhibition of Saccharomyces cerevisiae alpha-glucosidase using p-nitrophenyl-alpha-D-glucopyranoside as substrate incubated for 30 mins by spectrophotometric analysis; assay type: protein assay
Alpha-glucosidase [8] = biological target: T1, Alpha-glucosidase; experiment: Inhibition of Saccharomyces cerevisiae alpha-glucosidase using p-nitrophenyl glucopyranoside as substrate preincubated for 10 mins followed by substrate addition and measured after 20 mins by spectrophotometric analysis; assay type: protein assay
Alpha-glucosidase [9] = biological target: T1, Alpha-glucosidase; experiment: Inhibition of Saccharomyces cerevisiae alpha-glucosidase using pNPG as substrate by spectrophotometric analysis; assay type: protein assay
Alpha-glucosidase [10] = biological target: T1, Alpha-glucosidase; experiment: Inhibition of Saccharomyces cerevisiae alpha-glucosidase using p-nitrophenyl-alpha-D-glucopyranoside as substrate preincubated for 15 mins followed by substrate addition and measured after 20 mins by spectrophotometric analysis; assay type: protein assay
[11] = Inhibition of alpha-glucosidase (unknown origin) using p-nitrophenyl-alpha-D-glucopyranoside as substrate; set-up: species or system Homo sapiens
[12] = Competitive inhibition of alpha-glucosidase (unknown origin) using p-nitrophenyl-alpha-D-glucopyranoside as substrate assessed as inhibition constant; set-up: species or system Homo sapiens
[13] = Inhibition of alpha-glucosidase (unknown origin) using pNPG as substrate preincubated for 15 mins followed by substrate addition and measured after 30 mins by microplate reader based analysis; set-up: species or system Homo sapiens
Alpha-glucosidase [14] = biological target: T1, Alpha-glucosidase; experiment: Competitive inhibition of Saccharomyces cerevisiae alpha-glucosidase using pNPG as substrate assessed as inhibition constant preincubated for 10 mins followed by substrate addition and measured after 20 mins by spectrophotometric analysis; assay type: protein assay
[15] = Inhibition of alpha-glucosidase (unknown origin) using p-nitrophenyl-alpha-D-glucopyranoside as substrate preincubated for 15 mins followed by substrate addition and measured after 30 mins by absorbance based analysis; set-up: species or system Homo sapiens
[16] = Inhibition of alpha-glucosidase (unknown origin) using p-nitrophenyl-alpha-D-glucopyranoside as substrate preincubated for 15 mins followed by substrate addition and measured after 30 mins by spectrophotometric analysis; set-up: species or system Homo sapiens
[17] = Inhibition of alpha-glucosidase (unknown origin) using p-nitrophenyl glucopyranoside as substrate preincubated for 10 mins followed by substrate addition and measured after 20 mins by spectrophotometric analysis; set-up: species or system Homo sapiens
Alpha-glucosidase [18] = biological target: T1, Alpha-glucosidase; experiment: Inhibition of Saccharomyces cerevisiae alpha-glucosidase using p-nitrophenyl-alpha-D-glucopyranoside as substrate preincubated for 5 mins followed by substrate addition and measured after 5 mins by spectrophotometric analysis; assay type: protein assay
[19] = Inhibition of alpha-glucosidase (unknown origin) using p-nitrophenylglucopyranoside as substrate preincubated for 10 mins followed by substrate addition and measured after 30 mins by absorbance based microplate reader analysis; set-up: species or system Homo sapiens
[20] = Inhibition of alpha-glucosidase (unknown origin) using p-nitrophenyl glucopyranoside as substrate preincubated for 10 mins followed by substrate addition and measured after 30 mins by absorbance based analysis; set-up: species or system Homo sapiens
[21] = Inhibition of alpha-glucosidase (unknown origin) using pNPG as substrate assessed as inhibition constant by spectrophotometric analysis; set-up: species or system Homo sapiens
[22] = Inhibition of alpha-glucosidase (unknown origin) using pNPG as substrate by spectrophotometric analysis; set-up: species or system Homo sapiens

CCCCCCSc1nc2ccccc2n1CC(=O)NN1C(=O)CSC1c1ccc([N+](=O)[O-])cc1 (configuration not stated)
IC50 [1]: 5.22 µM

O=C(COc1ccc(C(c2c(O)c3ccccc3oc2=O)c2c(O)c3ccccc3oc2=O)cc1)Nc1ccc(Br)cc1
Ratio IC50 [2]: 18 | IC50 (Alpha-glucosidase [3]): 41.73 µM | Ki (Alpha-glucosidase [4]): 44 µM

Cc1ccc(NC(=O)C(C)Sc2nnc(-c3ccc(Cl)cc3)o2)cc1C (configuration not stated)
IC50 (Alpha-glucosidase [5]): 52.63 µM

Clc1ccc(-n2c(-c3cn(-c4ccccc4)nc3-c3ccc(Br)cc3)nc(-c3ccccc3)c2-c2ccccc2)cc1
IC50 [6]: 25.2 µM

COc1cc2oc(=O)ccc2cc1-c1c(O)cc(O)c2c1O/C(=C\c1ccccc1)C2=O
IC50 (Alpha-glucosidase [7]): 3.55 µM

O=C(CCCSc1nc2ccccc2s1)Nc1cccc2ccccc12
IC50 (Alpha-glucosidase [7]): 11 µM

Cc1cc2nc(-c3ccc(C(=O)NNC(=S)Nc4ccc([N+](=O)[O-])cc4)cc3)[nH]c2cc1C
IC50 (Alpha-glucosidase [5]): 35.83 µM

O=c1c2ccccc2nc(SCc2cn(Cc3ccc(Br)cc3)nn2)n1CCc1ccccc1
IC50 (Alpha-glucosidase [8]): 181 µM | IC50 (Alpha-glucosidase [9]): 181 µM

CCCCCCSc1nc2ccccc2n1CC(=O)NN1C(=O)CSC1c1ccc(C=O)cc1 (configuration not stated)
IC50 [1]: 5.69 µM

Oc1ccc(-c2nc3cc(N4CCOCC4)ccc3[nH]2)cc1
IC50 (Alpha-glucosidase [10]): 3.4 µM

O=C(/C=C\c1ccc(OCc2cn(Cc3ccc(O)cc3)nn2)cc1)NCCc1c[nH]c2ccccc12
IC50 (Alpha-glucosidase [3]): 65 µM | Ki (Alpha-glucosidase [4]): 64 µM

O=[N+]([O-])c1ccc(-c2nn(-c3ccccc3)cc2-c2nc(-c3ccccc3)c(-c3ccccc3)n2-c2ccc(Br)cc2)cc1
IC50 [6]: 33.6 µM

COc1ccc(-c2[nH]c3c(c2CC#N)c(=O)oc2ccccc23)cc1
IC50 [11]: 48.6 µM | Ki [12]: 48.6 µM

Oc1ccc(/C=N\c2nnc(-c3ccc(O)cc3)o2)cc1
IC50 [13]: 0.3 µM

CCOC(=O)c1c(SCc2cn(Cc3cccc([N+](=O)[O-])c3)nn2)nnc(-c2ccccc2)c1-c1ccccc1
IC50 (Alpha-glucosidase [8]): 85.6 µM | Ki (Alpha-glucosidase [14]): 82 µM

O=C1Nc2ccc(Cl)cc2/C1=C\c1ccc(-c2nnc(-c3cc(O)cc(O)c3)o2)cc1
IC50 [13]: 1.25 µM

CCn1cc(C(=O)CC(c2ccc3ccccc3c2)C2C(=O)N(C)C(=O)N(C)C2=O)c2ccccc21 (configuration not stated)
IC50 (Alpha-glucosidase [9]): 13.02 µM

O=C1Nc2cc(Br)ccc2/C1=N/Nc1nc(-c2ccc(Br)cc2)cs1
IC50 [15]: 20.8 µM

COc1ccc(-c2cn(C[C@@H](C)Oc3ccc(-c4ccc(C(F)(F)F)cc4)cc3OC)nn2)cc1
IC50 [16]: 14.2 µM

CN1CCN(c2ccc3[nH]c(-c4ccc(O)cc4)nc3c2)CC1
IC50 (Alpha-glucosidase [10]): 2.25 µM

COc1cc(-c2nc3ccccc3[nH]2)ccc1OCc1cn(CC(=O)Nc2cnc(-c3ccccc3)s2)nn1
IC50 [17]: 6.31 µM

CCCSc1nnc(C(C)c2ccc3cc(OC)ccc3c2)n1-c1ccc(Cl)c(Cl)c1 (configuration not stated)
IC50 (Alpha-glucosidase [18]): 1.1 µM

CC(=O)Nc1ccc(-c2[nH]c3ccc(F)cc3c2-c2nc(-c3ccccc3)c(-c3ccccc3)n2-c2ccccc2)cc1
IC50 [19]: 8.37 µM

FC(F)(F)c1cccc(-c2nnc(-c3c[nH]c4ncccc34)o2)c1
IC50 [20]: 0.46 µM

Cc1cc(C)cc(CS(=O)(=O)c2ccc(NC(=O)Nc3cccc(Cl)c3)cc2)c1
Ki [21]: 0.0128 µM | IC50 [22]: 0.00905 µM
